Data reported in US20180265911A1, “TRIPTYCENE DERIVATIVES FOR NUCLEIC ACID JUNCTION STABILIZATION” (THE TRUSTEES OF THE UNIVERSITY OF PENNSYLVANIA, priority 2015, published 2018).

Tests used:
DNA 3WJ = experiment: UV thermal melting of DNA 3WJ (Example 1); format: binding; conditions: Example 1 numbering, DNA 3WJ 1 μM, ligand 4 μM, 10 mM CacoK pH 7.2
Procedure: (§1) An aqueous solution of 10 mM potassium cacodylate (CacoK), pH 7.2 was used as analysis buffer. DNA 3WJ and dsDNA were brought to a final concentration of 1 1.1.1\4 and 2 μM, respectively. Samples were heated to 90° C. for 5 min, cooled to room temperature slowly, then to 4° C. Samples were incubated for 1 hour at room temperature with 3 μL of ligand at a final concentration of 4 μM for DNA 3WJ. The concentration of the ligand was 8 μM for dsDNA. Denaturation was recorded at 260 nm from 5° C. to 90° C. with a heating rate of 0.5° C. min^−1. Upper and lower baselines were used to plot the fraction folded.

dsDNA = experiment: UV thermal melting of dsDNA (Example 1); format: binding; conditions: Example 1 numbering, dsDNA 2 μM, ligand 8 μM, 10 mM CacoK pH 7.2
Procedure: as §1

A2780cis cells = experiment: Alamar blue cytotoxicity assay, A2780cis; format: cell-based, human
Procedure: (§2) All cell lines were maintained in a humidified incubator at 37° C. in 5% CO2. A2780 and A2780cis cells were cultured in RPMI 1640 (Corning Cellgro) supplemented with 10% fetal bovine serum (Giboc, Life Technologies), 1% L-glutamine (Corning Cellgro), penicillin and streptomycin (Corning Cellgro). Cells were seeded at a density of 2,000 cells/well in culture media (50 pt) in […] plates 24 hours prior to treatment. Cells were treated with DMSO (vehicle control), doxorubicin (positive control, 10 μM final), cisplatin (50 μM to 25 nM), or triptycenes (50 μM to 25 nM) for 72 hours at 37° C. with 5% CO2. DMSO concentrations were kept at 1%. Alamar blue (5 μL) was added and incubated for 4 hours. Fluorescence was measured at 590 nm. The vehicle control was taken as 100% cell viability and doxorubicin was taken as 0% viability.

A2780 cells = experiment: Alamar blue cytotoxicity assay, A2780; format: cell-based, human; conditions: Example 1 numbering, 72 hours, viability shown at 50 μM
Procedure: as §2

[1] = tested on: d(CAG)n(CTG) repeat nucleic acid junction; experiment: Fluorescence quenching assay, TNR 3WJ (Example 5); format: binding; conditions: comparison in words
Procedure: Fluorescence Quenching Assay: All experiments were conducted in 50 mM sodium phosphate buffer, pH 7.2. Fluorescence measurements were recorded with excitation at 495 nm and emission at 520 nm using 5 nm bandwidths on a Tecan M1000 plate reader. […] Samples were incubated for 2h and measured in triplicate in a 384-well plate.

## CN(CCCN)CCCNC(=O)c1ccccc1 [Compound 4 (Example 1), N-(3-((3-aminopropyl)(methyl)amino)propyl)benzamide]
DNA 3WJ
  ΔTm, stabilization of DNA 3WJ: 2.0 °C
dsDNA
  ΔTm, dsDNA: −1.3 °C

## NCCCCCCCNC(=O)c1ccc2c(c1)C1c3ccc(C(=O)NCCCCCCCN)cc3C2c2cc(C(=O)NCCCCCCCN)ccc21 [Trip 2 (Example 1), N^2,N^6,N^14-tris(7-aminoheptyl)-9,10-dihydro-9,10-[1,2]benzenoanthracene-2,6,14-tricarboxamide]
A2780cis cells; 50 µM
  viability of A2780cis cells: 6%

## CN(C)CCCNC(=O)c1ccc2c(c1)C1c3ccc(C(=O)NCCCN(C)C)cc3C2c2cc(C(=O)NCCCN(C)C)ccc21 [Trip 3 (Example 1), N^2,N^6,N^14-tris(3-(dimethylamino)propyl)-9,10-dihydro-9,10-[1,2]benzenoanthracene-2,6,14-tricarboxamide]
A2780 cells
  cytotoxicity in A2780 cells: No cytotoxic activity
A2780cis cells; Example 1 numbering, cisplatin-resistant line, Alamar blue, 72 hours, viability shown at 50 μM
  cytotoxicity in A2780cis cells: No cytotoxic activity

## NCCCCC(N)C(=O)Nc1ccc2c(c1)C1c3ccc(NC(=O)C(N)CCCCN)cc3C2c2cc(NC(=O)C(N)CCCCN)ccc21 [Trip 3 (Example 3), (2S,2'S,2″S)—N,N′,N″-(9,10-dihydro-9,10-[1,2]benzenoanthracene-2,7,15-triyl)tris(2,6-diaminohexanamide)]
[1]
  relative binding affinity toward the TNR junction: highest affinity

## NC(Cc1cnc[nH]1)C(=O)Nc1ccc2c(c1)C1c3ccc(NC(=O)C(N)Cc4cnc[nH]4)cc3C2c2cc(NC(=O)C(N)Cc3cnc[nH]3)ccc21 [Trip 4 (Example 3), (2S,2′S,2″S)—N,N′,N″-(9,10-dihydro-9,10-[1,2]benzenoanthracene-2,7,15-triyl)tris(2-amino-3-(1H-imidazol-5-yl)propanamide)]
[1]
  relative binding affinity toward the TNR junction: highest affinity
